Values after ≈ are worked out from the molar mass of the structure shown.
Key:
Escherichia coli [1] = experiment: Antibacterial activity against Escherichia coli MG1655 in presence of polymyxin B nonapeptide; format: functional
Staphylococcus aureus [2] = experiment: Antibacterial activity against Linezolid-resistant Staphylococcus aureus assessed as reduction in bacterial growth; format: functional
Escherichia coli [3] = experiment: Antibacterial activity against efflux pump-efficient Escherichia coli MG1655 assessed as bacterial growth inhibition; format: functional
[4] = tested on: Staphylococcus epidermidis; experiment: Antibacterial activity against Methicillin-resistant Staphylococcus epidermidis assessed as bacterial growth inhibition; format: functional
[5] = tested on: Staphylococcus epidermidis; experiment: Antibacterial activity against Staphylococcus epidermidis assessed as reduction in microbial growth after 24 hrs by CLSI based microdilution method; format: functional
[6] = tested on: Mycobacterium tuberculosis; experiment: Antibacterial activity against Mycobacterium tuberculosis H37Rv assessed as inhibition of bacterial growth; format: functional
Pseudomonas aeruginosa [7] = experiment: Antibacterial activity against Pseudomonas aeruginosa PAO1 assessed as bacterial growth inhibition incubated for 24 hrs by microtiter plate reader analysis; format: functional
[8] = tested on: Staphylococcus epidermidis; experiment: Antibacterial activity against linezolid-resistant Staphylococcus epidermidis assessed as reduction in bacterial growth; format: functional
Escherichia coli [9] = experiment: Antimicrobial activity against wild type Escherichia coli MG1655 assessed as inhibition of microbial growth; format: functional
Staphylococcus aureus [10] = experiment: Antibacterial activity against Staphylococcus aureus assessed as reduction in bacterial growth incubated for 24 hrs by broth microdilution method; format: functional
Staphylococcus aureus [11] = experiment: Antibacterial activity against methicillin-sensitive Staphylococcus aureus assessed as reduction in microbial growth by CLSI based broth microdilution method; format: functional
Pseudomonas aeruginosa [12] = experiment: Antibacterial activity against wild-type Pseudomonas aeruginosa PAO1 incubated for 24 hrs by broth microdilution method; format: functional
Coagulation factor X = Coagulation factor X (Homo sapiens, UniProt P00742); experiment: Inhibition of human factor Xa
Coagulation factor X, sequence (P00742 41-179 limits assumed): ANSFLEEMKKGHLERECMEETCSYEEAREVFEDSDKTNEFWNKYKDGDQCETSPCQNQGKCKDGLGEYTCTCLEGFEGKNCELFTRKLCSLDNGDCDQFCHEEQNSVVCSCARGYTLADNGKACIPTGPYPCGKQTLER
Coagulation factor X, sequence (P00742 235-488 limits assumed): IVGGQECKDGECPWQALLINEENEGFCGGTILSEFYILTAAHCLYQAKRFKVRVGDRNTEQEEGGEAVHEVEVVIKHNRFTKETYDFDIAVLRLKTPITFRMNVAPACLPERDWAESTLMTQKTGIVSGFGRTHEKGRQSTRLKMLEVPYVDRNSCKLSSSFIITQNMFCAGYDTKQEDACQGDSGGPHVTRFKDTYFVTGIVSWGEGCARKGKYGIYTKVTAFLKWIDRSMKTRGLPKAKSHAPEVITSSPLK

Staphylococcus aureus [13] = experiment: Antibacterial activity against Staphylococcus aureus HG001 assessed as reduction in bacterial cell growth incubated for 16 to 18 hrs by two-fold serial dilution method; format: functional; settings: time 16-18 hrs
[14] = Intrinsic clearance in mouse liver microsomes; format: ADME, Microsome; settings: read-out: CLH
[15] = tested on: Staphylococcus epidermidis; experiment: Antibacterial activity against Methicillin-resistant Staphylococcus epidermidis assessed as inhibition of bacterial growth; format: functional
Staphylococcus aureus [16] = experiment: Antibacterial activity against Methicillin-resistant Staphylococcus aureus assessed as inhibition of bacterial growth; format: functional
Staphylococcus aureus [17] = experiment: Antimicrobial activity against Methicillin-sensitive Staphylococcus aureus ATCC 29213 assessed as reduction in bacterial growth; format: functional
Enterococcus faecalis = experiment: Antibacterial activity against vancomycin-resistant Enterococcus faecalis incubated for 18 hrs by broth microdilution method; format: functional
[18] = tested on: Mycobacterium tuberculosis; experiment: Antimycobacterial activity against Mycobacterium tuberculosis H37Rv assessed as reduction in bacterial growth measured for 7 days by resazurin dye based assay; format: functional; settings: 168 h, time 7 day
Staphylococcus aureus [19] = experiment: Antimicrobial activity against […] Staphylococcus aureus ATCC 25923 assessed as reduction in microbial growth; format: functional
Haemophilus influenzae [20] = experiment: Antibacterial activity against Haemophilus influenzae assessed as bacterial growth inhibition measured after 16 to 24 hrs by broth microdilution assay; format: functional; settings: time 16-24 hrs
Staphylococcus aureus [21] = experiment: Antibacterial activity against methicillin-sensitive Staphylococcus aureus assessed as reduction in bacterial growth incubated for 24 hrs by broth microdilution method; format: functional
Staphylococcus aureus [22] = experiment: Antibacterial activity against Methicillin-resistant Staphylococcus aureus ATCC 33592 assessed as reduction in bacterial growth; format: functional
Haemophilus influenzae [23] = experiment: Antibacterial activity against Haemophilus influenzae assessed as bacterial growth inhibition; format: functional
Enterococcus faecium = experiment: Antibacterial activity against vancomycin-resistant Enterococcus faecium assessed as reduction in microbial growth CLSI-based double dilution method; format: functional
Staphylococcus aureus [24] = experiment: Antibacterial activity against methicillin-resistant Staphylococcus aureus assessed as reduction in microbial growth by CLSI based broth microdilution method; format: functional
Staphylococcus aureus [25] = experiment: Antibacterial activity against Staphylococcus aureus assessed as reduction in microbial growth by CLSI based broth microdilution method; format: functional

## CC(=O)NC[C@H]1CN(c2ccc(N3CCOCC3)c(F)c2)C(=O)O1 [LINEZOLID]
Escherichia coli [1]
  MIC: 36 µg/mL
Staphylococcus aureus [2]
  MIC: > 32 µg/mL
Escherichia coli [3]
  MIC: 11 µg/mL (≈ 32.6 µM)
[4]
  MIC: 2 µg/mL (≈ 5.93 µM)
[5]
  MIC: 2 µg/mL
[6]
  MIC: 1.56 µg/mL (≈ 4.62 µM)
Pseudomonas aeruginosa [7]
  MIC: 4 µM (≈ 1.35 µg/mL)
[8]
  MIC: > 32 µg/mL
Escherichia coli [9]
  MIC: 130 µg/mL
Staphylococcus aureus [10]
  MIC: 3.1 µg/mL (≈ 9.19 µM)

## C[C@H](NC(=O)[C@H](NC(=O)OCC1c2ccccc2-c2ccccc21)[C@H](C)OC(C)(C)C)[C@H]1CN(c2ccc(N3CCOCC3)c(F)c2)C(=O)O1
Staphylococcus aureus [11]
  MIC: 6.25 µg/mL

## CC(=O)NCC1CN(c2ccc(N3CCN(C(=O)COn4cc(CNC(=O)C(CNC(=O)C(CNC(=O)CNC(=O)c5cccc(O)c5O)NC(=O)c5cccc(O)c5O)NC(=O)c5cccc(O)c5O)nn4)CC3)c(F)c2)C(=O)O1 (stereo unspecified)
Pseudomonas aeruginosa [7]
  MIC: 16 µM (≈ 18 µg/mL)
Pseudomonas aeruginosa [12]
  MIC: > 64 µM

## CS(=O)(=O)c1ccccc1-c1ccc2c(c1)OC[C@H]1[C@H](CNC(=O)c3ccc(Cl)s3)OC(=O)N21
Coagulation factor X
  IC50: 30 nM

## CC(=O)NCC1CN(c2ccc(N3CCN(C(=O)CCOCCOCn4cc(CNC(=O)C(CCCCNC(=O)c5cccc(O)c5O)NC(=O)c5cccc(O)c5O)nn4)CC3)c(F)c2)C(=O)O1 (stereo unspecified)
Staphylococcus aureus [13]
  MIC: > 64 µM

## CC(=O)NCC1CN(c2ccc(N3CCN(C(=O)COn4cc(CNC(=O)C(CCCCNC(=O)c5cccc(O)c5O)NC(=O)c5cccc(O)c5O)nn4)CC3)c(F)c2)C(=O)O1 (stereo unspecified)
Staphylococcus aureus [13]
  MIC: > 64 µM

## O=C(NC[C@@H]1OC(=O)N2c3ccc(N4CCOCC4=O)cc3[S+]([O-])C[C@@H]12)c1ccc(Cl)s1 (stereo partly specified)
Coagulation factor X
  IC50: 60 nM

## CC(=O)NC[C@H]1CN(c2ccc(N3CCC(Nc4ccc(Br)cc4)CC3)c(F)c2)C(=O)O1
[14]
  CLint scaled: 3.46 mL/min/kg

## CC(=O)NC[C@H]1CN(c2ccc([S+](C)[O-])cc2)C(=O)O1 (stereo partly specified)
[15]
  MIC: 1 µg/mL (≈ 3.37 µM)
Staphylococcus aureus [16]
  MIC: 1 µg/mL (≈ 3.37 µM)

## O=C(NC[C@@H]1OC(=O)N2c3ccc(N4CCOCC4=O)cc3OC[C@@H]12)c1ccc(Cl)s1
Coagulation factor X
  IC50: 3 nM

## Cn1nnc(-c2ccc(-c3ccc(N4C[C@H](COP(=O)(O)O)OC4=O)cc3F)cn2)n1 [TEDIZOLID PHOSPHATE]
Staphylococcus aureus [17]
  MIC90: 0.12 µg/mL
Enterococcus faecalis
  MIC90: 0.12 µg/mL
[18]
  MIC90: 0.125 µg/mL
Staphylococcus aureus [19]
  MIC90: 0.12 µg/mL

## C[S+]([O-])c1ccc(N2CC(CCl)OC2=O)cc1 (stereo unspecified)
Haemophilus influenzae [20]
  MIC: 16 µg/mL (≈ 58.4 µM)

## CC(C)(C)Oc1ccc(C[C@H](NC(=O)OCC2c3ccccc3-c3ccccc32)C(=O)N[C@@H](Cc2ccccc2)[C@@H]2CN(c3ccc(N4CCOCC4)c(F)c3)C(=O)O2)cc1
[6]
  MIC: 12.5 µg/mL (≈ 15.1 µM)

## CC(=O)NC[C@H]1CN(c2ccc(-c3ccc(CNCc4cnn[nH]4)cc3)c(F)c2)C(=O)O1 [RADEZOLID]
Staphylococcus aureus [21]
  MIC90: 0.5 µg/mL (≈ 1.14 µM)
Staphylococcus aureus [22]
  MIC90: 0.5 µg/mL (≈ 1.14 µM)
Haemophilus influenzae [23]
  MIC90: 0.5 µg/mL (≈ 1.14 µM)
Enterococcus faecium
  MIC90: 0.5 µg/mL

## COC(=O)NC[C@H]1CN(c2ccc(-c3ccc4c(c3)CC3(C(=O)NC(=O)NC3=O)C3COCCN43)c(F)c2)C(=O)O1 (stereo partly specified)
Staphylococcus aureus [24]
  MIC: 4 µg/mL
Staphylococcus aureus [2]
  MIC: > 32 µg/mL
[4]
  MIC: 2 µg/mL (≈ 3.52 µM)
[5]
  MIC: 4 µg/mL
[8]
  MIC: 32 µg/mL (≈ 56.4 µM)
Staphylococcus aureus [25]
  MIC: 4 µg/mL

## O=C(NC[C@@H]1OC(=O)N2c3ccc(N4CCCCC4=O)cc3CC[C@@H]12)c1ccc(Cl)s1
Coagulation factor X
  IC50: 6 nM

## COC(=O)C1(C(=O)OC)Cc2cc(-c3ccc(N4C[C@H](CO)OC4=O)cc3F)ccc2N2CCOCC21 (stereo partly specified)
Staphylococcus aureus [24]
  MIC: 8 µg/mL
Staphylococcus aureus [2]
  MIC: > 32 µg/mL
[4]
  MIC: 8 µg/mL (≈ 15.5 µM)
[5]
  MIC: 8 µg/mL
[8]
  MIC: > 32 µg/mL
Staphylococcus aureus [25]
  MIC: 16 µg/mL

## O=C(NC[C@@H]1OC(=O)N2c3ccc(N4CCOCC4=O)cc3CC[C@@H]12)c1ccc(Cl)s1
Coagulation factor X
  IC50: 4 nM

## CC(C)(C)C[C@@H](NC(=O)OCC1c2ccccc2-c2ccccc21)C(=O)N[C@@H](Cc1ccccc1)[C@H]1CN(c2ccc(N3CCOCC3)c(F)c2)C(=O)O1
[6]
  MIC: 1.9 µg/mL (≈ 2.59 µM)

— ChEMBL document CHEMBL5550106, “Recent advances in the exploration of oxazolidinone scaffolds from compound development to antibacterial agents and other bioactivities” (Eur J Med Chem, 2024)
